According to paper PMC4074212, “Tetra- and Pentacyclic Triterpene Acids from the Ancient Anti-inflammatory Remedy Frankincense as Inhibitors of Microsomal Prostaglandin E2 Synthase-1” (Journal of Natural Products, 2014):
Entries after “also recorded” stand apart in the source; their conditions may differ.

What was measured:
mPGES-1 = target: T1, mPGES-1 (Homo sapiens, UniProt O14684); assay: cell-free mPGES-1 activity assay (microsomes of IL-1β-stimulated A549 cells, PGE2 formation from PGH2); assay type: biochemical; conditions: for inhibition of mPGES-1 activity (in words): tested at / up to 10 μM
T1 construct: using microsomes of IL-1β-stimulated A549 cells as enzyme source; endogenous in cells; host or cells: A549 cells, IL-1β-induced, microsomal fraction
T1 sequence (O14684 1-152): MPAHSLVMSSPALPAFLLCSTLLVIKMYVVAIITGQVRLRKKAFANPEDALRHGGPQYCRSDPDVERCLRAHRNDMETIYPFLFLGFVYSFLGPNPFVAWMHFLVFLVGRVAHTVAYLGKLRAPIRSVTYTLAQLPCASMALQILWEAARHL

COX enzymes = tested on: COX enzymes; set-up: method as in PMID 17945191, PMID 20188172, PMID 24354175; conditions: cited from earlier work
[1] = tested on: phorbol ester-induced ear inflammation; set-up: method as in PMID 16621377; conditions: applied topically, mice; cited from earlier work

CC(C)=CCC[C@H](C(=O)O)[C@@H]1CC[C@]2(C)C3=C(CC[C@@]12C)[C@@]1(C)CC[C@@H](O)C(C)(C)[C@@H]1CC3 [Compound 5, 3-α-hydroxy-8,24-dienetirucallic acid]
inhibition at 10 µM (mPGES-1; at 10 μM): 96%

CC(=O)O[C@@H]1CC[C@]2(C)C3=C(CC[C@H]2C1(C)C)[C@@]1(C)CC[C@@H]([C@H](CCC=C(C)C)C(=O)O)[C@]1(C)CC3 [Compound 6, 3α-acetoxy-8,24-dienetirucallic acid]
concentration range of COX enzyme inhibition (COX enzymes): two-digit micromolar range

C=C(C)[C@@H]1CC[C@]2(C)[C@H](CC=C3[C@@H]4[C@@H](C)[C@H](C)CC[C@]4(C)CC[C@]32C)[C@@]1(C)CCC(=O)O [Compound 11, roburic acid]
inhibition of mPGES-1 activity (in words) (mPGES-1): failed to significantly inhibit; also recorded: not active
concentration range of COX enzyme inhibition (COX enzymes): two-digit micromolar range

CC(C)[C@@H]1CC[C@]2(C)[C@H](CC=C3[C@@H]4[C@@H](C)[C@H](C)CC[C@]4(C)CC[C@]32C)[C@@]1(C)CCC(=O)O [Compound 12, 4,(23)-dihydroroburic acid]
inhibition of mPGES-1 activity (in words) (mPGES-1): failed to significantly inhibit; also recorded: not active

CC(C)[C@@H]1CC[C@]2(C)[C@H](CC=C3[C@@H]4CC(C)(C)CC[C@]4(C)CC[C@]32C)[C@@]1(C)CCC(=O)O [Compound 14, 4,(23)-dihydronyctanthic acid]
inhibition of mPGES-1 activity (in words) (mPGES-1): failed to significantly inhibit; also recorded: inactive

C=C(C)[C@@H]1CC[C@]2(C)CC[C@]3(C)[C@H](CC[C@@H]4[C@@]5(C)CC[C@H](O)[C@](C)(C(=O)O)[C@@H]5CC[C@]43C)[C@@H]12 [Compound 15, Lupeolic acid]
inhibition of phorbol ester-induced ear inflammation [1]: inhibited

C=C(C)[C@@H]1CC[C@]2(C)CC[C@]3(C)[C@H](CC[C@@H]4[C@@]5(C)CC[C@H](OC(C)=O)[C@](C)(C(=O)O)[C@@H]5CC[C@]43C)[C@@H]12 [Compound 16, 3-O-acetyllupeolic acid]
inhibition of phorbol ester-induced ear inflammation [1]: inhibited
